According to paper PMC4305287, “Two Novel α7 Nicotinic Acetylcholine Receptor Ligands: In Vitro Properties and Their Efficacy in Collagen-Induced Arthritis in Mice” (PLoS ONE, 2015):
Where “and” joins values, the source holds several entries; their conditions need not be identical. Equal values may be shown once. Read-outs that look alike come from different tables or passages of the source.

Legend:
α4β2 nAChR = target: T1, α4β2 nAChR (Homo sapiens, UniProt P17787+P43681); assay: ion channel assay on α4β2 nAChR in Xenopus oocytes; format: biochemical; details: data not shown
T1 construct: expressed in transfected cells; host or cells: Xenopus laevis oocytes injected with subunit cRNAs; clones from Dr. Jon Lindstrom
T1 sequence (P43681 29-627 limits assumed): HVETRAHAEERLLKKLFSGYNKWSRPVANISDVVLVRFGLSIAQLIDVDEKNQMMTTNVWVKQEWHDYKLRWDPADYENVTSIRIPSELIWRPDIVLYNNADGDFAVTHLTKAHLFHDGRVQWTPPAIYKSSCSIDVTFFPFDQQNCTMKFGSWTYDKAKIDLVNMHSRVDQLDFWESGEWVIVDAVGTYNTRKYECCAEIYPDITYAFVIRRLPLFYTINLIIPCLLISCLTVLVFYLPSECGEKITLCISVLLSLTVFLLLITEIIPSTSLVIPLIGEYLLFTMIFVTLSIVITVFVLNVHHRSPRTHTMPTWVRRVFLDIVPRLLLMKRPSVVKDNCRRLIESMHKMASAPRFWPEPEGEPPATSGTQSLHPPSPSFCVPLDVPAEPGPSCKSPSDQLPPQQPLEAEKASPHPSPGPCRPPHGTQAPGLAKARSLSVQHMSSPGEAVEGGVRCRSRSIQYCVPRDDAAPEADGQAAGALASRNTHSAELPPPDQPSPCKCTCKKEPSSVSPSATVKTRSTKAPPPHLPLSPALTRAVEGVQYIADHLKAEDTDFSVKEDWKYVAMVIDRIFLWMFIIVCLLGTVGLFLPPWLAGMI
T1 sequence (P17787 26-502): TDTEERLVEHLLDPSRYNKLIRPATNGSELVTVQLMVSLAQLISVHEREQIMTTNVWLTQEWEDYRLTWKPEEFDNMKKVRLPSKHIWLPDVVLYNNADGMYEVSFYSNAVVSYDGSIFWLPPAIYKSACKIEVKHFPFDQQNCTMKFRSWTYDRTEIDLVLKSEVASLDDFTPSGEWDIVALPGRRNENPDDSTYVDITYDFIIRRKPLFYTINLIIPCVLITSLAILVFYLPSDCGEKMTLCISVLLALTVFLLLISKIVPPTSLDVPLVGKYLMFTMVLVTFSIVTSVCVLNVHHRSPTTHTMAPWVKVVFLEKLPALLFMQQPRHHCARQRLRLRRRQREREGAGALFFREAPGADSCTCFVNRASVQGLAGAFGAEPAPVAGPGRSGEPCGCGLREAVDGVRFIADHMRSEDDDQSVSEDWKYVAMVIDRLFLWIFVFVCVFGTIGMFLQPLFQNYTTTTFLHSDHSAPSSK
Method: Human nAChR receptor clones were obtained from Dr. Jon Lindstrom (University of Pennsylvania, Philadelphia, PA). The RIC-3 clone was obtained from Dr. Millet Treinin (Hebrew University, Jerusalem, Israel). Subsequent to linearization and purification of cloned cDNAs, RNA transcripts were prepared in vitro using the appropriate mMessage Machine kit from Ambion Inc. (Austin, TX).
The preparation of Xenopus laevis oocytes for RNA expression was conducted as previously described. Stage 5 oocytes were isolated and injected with […] (5–20 ng) of each subunit cRNAs. Recordings were conducted 2–5 days after injection. […]
Each oocyte received two initial control applications of 300 μM ACh, followed by the experimental drug application, and subsequent control application of 300 μM ACh, unless otherwise indicated. Responses to experimental drug applications were determined relative to the preceding ACh control responses in order to normalize the data, compensating for the varying levels of channel expression among the oocytes. Responses for α7 nAChR were calculated as net charge, since peak currents inaccurately report the agonist concentration dependence of α7 nAChR-mediated responses. […]

[1] = pharmacokinetics in CD1 mice; format: in vivo, mouse; details: for Kp at 30 min: CD1, mouse, brain, read-out: Brain penetration; for Kp at 30 min / Brain penetration: relative to plasma level 30 min after 1 mg/kg IV; for bioavailability: read-out: %F (bioavailability)
Method: Pharmacokinetic studies were carried out at Cerep using non-cannulated, non-fasted CD1 mice (Charles River Laboratories, Wilmington, MA). PMP-311 or PMP-072 were formulated in phosphate buffered saline (PBS), pH 7.4, as a clear solution and 1 mg/kg was administered by bolus intravenous (IV) injection or 5 mg/kg by oral gavage. Plasma samples were obtained from 3 mice per time point at 15, 30, 60, 120, 240, 360, 480 and 1440 min post-dose. The plasma samples were processed using acetonitrile precipitation and analyzed by HPLC-MS or HPLC-MS/MS to determine the concentration of drug as compared to a plasma calibration curve (aliquots of drug-free plasma were spiked with the test compound at the specified concentration levels and processed together with the unknown plasma samples using the same procedure). The processed plasma samples were stored frozen (−20°C) until the HPLC-MS/MS analysis. Peak areas were recorded, and the concentrations of the test compound in the unknown plasma samples were determined using the respective calibration curve. The reportable linear range of the assay was determined, along with the lower limit of quantitation (LLQ).
Plots of plasma concentration of compound versus time were constructed. The fundamental pharmacokinetic parameters of compound after oral and IV dosing (Cmax: maximum concentration, Tmax: time to maximum concentration, T1/2: terminal elimination half-life, AUC: area under the curve, CI: clearance, Vd: volume of distribution, and %F: bioavailability) were obtained from the non-compartmental analysis of the plasma data using WinNonlin (Pharsight, St. Louis, MO).

[2] = tested on: T2, human α7 nAChR primed with PNU-120596; assay: electrophysiology of oocytes primed with PNU-120596; format: biochemical; details: after 60 s priming with 300 μM PNU-120596; PMP-311 1 μM, PMP-072 10 μM, MLA 10 μM
T2 construct: expressed in transfected cells; host or cells: Xenopus laevis oocytes injected with cRNA; clones from Dr. Jon Lindstrom (α7) and Dr. Millet Treinin (RIC-3)
Method: Each oocyte received two initial control applications of 300 μM ACh, followed by the experimental drug application, and subsequent control application of 300 μM ACh, unless otherwise indicated. Responses to experimental drug applications were determined relative to the preceding ACh control responses in order to normalize the data, compensating for the varying levels of channel expression among the oocytes. Responses for α7 nAChR were calculated as net charge, since peak currents inaccurately report the agonist concentration dependence of α7 nAChR-mediated responses. […] Imax, n, and the EC50 were all unconstrained for the fitting procedures except in the case of the ACh concentration-response curves.

[3] = CD1, plasma, mouse, 5 mg/kg oral

SMILES	IC50 (α4β2 nAChR; read-out: IC50, antagonist of α4β2 nAChR)	IC50 (α4β2 nAChR; ion channel assay, read-out: IC50, inhibition of α4β2 nAChR)	Kp at 30 min [1]	Vd ([1]; CD1, plasma, mouse, 1 mg/kg IV)	clearance ([1]; CD1, plasma, mouse, 1 mg/kg IV)	half-life ([1]; CD1, plasma, mouse, 1 mg/kg IV)	AUC [1, 3]	Cmax [1, 3]	Tmax [1, 3]	half-life [1, 3]	bioavailability [1, 3]	Brain penetration [1]	Cl ([1]; mouse, 1 mg/kg IV)	T1/2 ([1]; mouse, 5 mg/kg oral)	ion channel response of PNU-120596 primed cells [2]
c1cncc(OC[C@@H]2CNCCN2c2nc3ncccc3o2)c1 [PMP-311, (S)-2-(2-((Pyridin-3-yloxy)methyl)piperazin-1-yl)oxazolo[4,5-b]pyridine]	~20 nM	< 1000 nM	0.44	1.94 L/kg	72 mL/min/kg	19 min	567 ng·h/mL	787 ng/mL and 2.5 µM	15 min	98 min	50%	44%	–	–	–
COc1ccc(NC(=O)N2CCNC[C@@H]2COc2cccnc2)cc1 [PMP-072, (R)-N-(4-methoxyphenyl)-2-((pyridin-3-yloxy)methyl)piperazine-1-carboxamide]	–	–	0.06	5.83 L/kg	–	39 min	588 ng·h/mL	324 ng/mL and 940 nM	30 min	–	76%	6%	103 mL/min/kg	104 min	able to activate large ion channel currents
